Our source for the IC50 values is patent publication US10961231B2, “NTCP inhibitors” (National Institute of Biological Sciences, Beijing, priority 2018, dated 2021).

Each structure is given as a SMILES string.

This test has as its target T1, NTCP (Homo sapiens, UniProt Q14973).
T1 sequence (Q14973 1-349): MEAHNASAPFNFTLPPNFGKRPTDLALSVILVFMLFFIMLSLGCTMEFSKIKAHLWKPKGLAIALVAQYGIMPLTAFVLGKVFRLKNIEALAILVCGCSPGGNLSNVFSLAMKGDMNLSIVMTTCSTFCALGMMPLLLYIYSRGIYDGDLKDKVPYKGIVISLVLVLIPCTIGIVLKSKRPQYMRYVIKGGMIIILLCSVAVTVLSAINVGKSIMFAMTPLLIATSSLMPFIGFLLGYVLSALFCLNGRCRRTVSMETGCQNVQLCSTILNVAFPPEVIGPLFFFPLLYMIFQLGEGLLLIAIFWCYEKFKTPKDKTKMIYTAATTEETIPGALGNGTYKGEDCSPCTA
The experiment in a line: [3H]-TCA uptake assay (NTCP inhibition). Type of test: cell-based. The following applies: IC50, given as a range, marked * (asterisk not explained). An outline of the steps:
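Read-out is liquid scintillation counting of Triton X-100 lysates after 15 min, 37° C uptake of 1 μM [3H]-taurocholate in Na+ Ringer's buffer (145 mM Na). Beforehand, PTH and HepG2-NTCP cells had 24 h in PMM for NTCP induction and 2 h of compound or DMSO treatment.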
In turn, `CCC1NC(=O)C(C2OC(SCc3cc(F)c(Cl)cc3Cl)CC2C)N(C)C(=O)C(C(C)C)N(C)C(=O)C(CC(C)C)N(C)C(=O)C(CC(C)C)N(C)C(=O)C(C)NC(=O)C(C)NC(=O)C(CC(C)C)N(C)C(=O)C(C(C)C)NC(=O)C(CC(C)C)N(C)C(=O)CN(C)C1=O` (stereo not drawn) [Compound 101A-s] had an IC50 of 1 to 100 µM. Then `CCC1NC(=O)C(C2OC(SC(C)c3ccc(Cl)cc3)CC2C)N(C)C(=O)C(C(C)C)N(C)C(=O)C(CC(C)C)N(C)C(=O)C(CC(C)C)N(C)C(=O)C(C)NC(=O)C(C)NC(=O)C(CC(C)C)N(C)C(=O)C(C(C)C)NC(=O)C(CC(C)C)N(C)C(=O)CN(C)C1=O` (stereo not drawn) [Compound 102-s], with 1 to 100 µM; and `CCC1NC(=O)C(C2OC(OC(C)c3ccc(Cl)cc3)CC2C)N(C)C(=O)C(C(C)C)N(C)C(=O)C(CC(C)C)N(C)C(=O)C(CC(C)C)N(C)C(=O)C(C)NC(=O)C(C)NC(=O)C(CC(C)C)N(C)C(=O)C(C(C)C)NC(=O)C(CC(C)C)N(C)C(=O)CN(C)C1=O` (stereo not drawn) [Compound 102], with 1 to 100 µM.

Compound `CCC1NC(=O)C(C2OC(SCc3cc(Cl)c(F)cc3Cl)CC2C)N(C)C(=O)C(C(C)C)N(C)C(=O)C(CC(C)C)N(C)C(=O)C(CC(C)C)N(C)C(=O)C(C)NC(=O)C(C)NC(=O)C(CC(C)C)N(C)C(=O)C(C(C)C)NC(=O)C(CC(C)C)N(C)C(=O)CN(C)C1=O` (stereo not drawn) [Compound 103-s] came in with an IC50 of 1 to 100 µM.

With `CCC1NC(=O)C(C2OC(OCc3cc(Cl)c(F)cc3Cl)CC2C)N(C)C(=O)C(C(C)C)N(C)C(=O)C(CC(C)C)N(C)C(=O)C(CC(C)C)N(C)C(=O)C(C)NC(=O)C(C)NC(=O)C(CC(C)C)N(C)C(=O)C(C(C)C)NC(=O)C(CC(C)C)N(C)C(=O)CN(C)C1=O` (stereo not drawn) [Compound 103], the IC50 lay within 1 to 100 µM. Then `CCC1NC(=O)C(C2OC(SCc3cc(Cl)c(Cl)cc3Cl)CC2C)N(C)C(=O)C(C(C)C)N(C)C(=O)C(CC(C)C)N(C)C(=O)C(CC(C)C)N(C)C(=O)C(C)NC(=O)C(C)NC(=O)C(CC(C)C)N(C)C(=O)C(C(C)C)NC(=O)C(CC(C)C)N(C)C(=O)CN(C)C1=O` (stereo not drawn) [Compound 104-s], with 1 to 100 µM; and `CCC1NC(=O)C(C2OC(OCc3cc(Cl)c(Cl)cc3Cl)CC2C)N(C)C(=O)C(C(C)C)N(C)C(=O)C(CC(C)C)N(C)C(=O)C(CC(C)C)N(C)C(=O)C(C)NC(=O)C(C)NC(=O)C(CC(C)C)N(C)C(=O)C(C(C)C)NC(=O)C(CC(C)C)N(C)C(=O)CN(C)C1=O` (stereo not drawn) [Compound 104], with 1 to 100 µM.

As to `CCC1NC(=O)C(C2OC(SCc3cccc(OCC4CCOCC4)c3)CC2C)N(C)C(=O)C(C(C)C)N(C)C(=O)C(CC(C)C)N(C)C(=O)C(CC(C)C)N(C)C(=O)C(C)NC(=O)C(C)NC(=O)C(CC(C)C)N(C)C(=O)C(C(C)C)NC(=O)C(CC(C)C)N(C)C(=O)CN(C)C1=O` (stereo not drawn) [Compound 105-s], the IC50 lay within 1 to 100 µM. For the compound `CCC1NC(=O)C(C2OC(OCc3cccc(OCC4CCOCC4)c3)CC2C)N(C)C(=O)C(C(C)C)N(C)C(=O)C(CC(C)C)N(C)C(=O)C(CC(C)C)N(C)C(=O)C(C)NC(=O)C(C)NC(=O)C(CC(C)C)N(C)C(=O)C(C(C)C)NC(=O)C(CC(C)C)N(C)C(=O)CN(C)C1=O` (stereo not drawn) [Compound 105], the IC50 was 1 to 100 µM.
